Assay results from patent US20220151230A1, “SPECIFICALLY SUBSTITUTED 3-(2-HALOGEN-6-ALKYL-4-PROPINYLPHENYL)-3-PYRROLIN-2-ONES AND TO THE USE THEREOF AS HERBICIDES” (Bayer Aktiengesellschaft, priority 2019, published 2022).

Columns and labels:
ALOMY [1] = test: Post-emergence herbicidal effect against ALOMY; assay type: in vivo, Alopecurus myosuroides; conditions: one-leaf stage, 80 g/ha, assessed visually after about 3 weeks vs untreated controls, 100% = plants have died
Method: (§1) Seeds of monocotyledonous and dicotyledonous weed and crop plants are laid out in sandy loam soil in wood-fiber pots, covered with soil and cultivated in a greenhouse under good growth conditions. 2 to 3 weeks after sowing, the test plants are treated at the one-leaf stage. The compounds of the invention, formulated in the form of wettable powders (WP) or as emulsion concentrates (EC), are then sprayed onto the green parts of the plants as aqueous suspension or emulsion at a water application rate equating to 600 to 800 l/ha with addition of 0.2% wetting agent. After the test plants have been left to stand in the greenhouse under optimal growth conditions for about 3 weeks, the action of the preparations is assessed visually in comparison to untreated controls (herbicidal action in percent (%): 100% activity=the plants have died, 0% activity=like control plants).

ALOMY [2] = test: Pre-emergence herbicidal effect against ALOMY; assay type: in vivo, Alopecurus myosuroides; conditions: 320 g/ha, scored visually after 3 weeks vs untreated controls, 100% = plants have died
Excerpt: (§2) Seeds of monocotyledonous and dicotyledonous weed plants and crop plants are laid out in sandy loam soil in wood-fiber pots and covered with soil. The compounds of the invention, formulated in the form of wettable powders (WP) or as emulsion concentrates (EC), are then applied to the surface of the covering soil as aqueous suspension or emulsion at a water application rate equating to 600 to 800 L/ha with addition of 0.2% wetting agent.
(§3) After the treatment, the pots are placed in a greenhouse and kept under good growth conditions for the trial plants. The damage to the test plants is scored visually after a test period of 3 weeks by comparison with untreated controls (herbicidal activity in percent (%): 100% activity=the plants have died, 0% activity=like control plants).

SETVI [3] = test: Post-emergence herbicidal effect against SETVI; assay type: in vivo, Setaria viridis; conditions: one-leaf stage, 80 g/ha, assessed visually after about 3 weeks vs untreated controls, 100% = plants have died
Method: as §1

SETVI [4] = test: Pre-emergence herbicidal effect against SETVI; assay type: in vivo, Setaria viridis; conditions: 320 g/ha, scored visually after 3 weeks vs untreated controls, 100% = plants have died
Excerpt: as §2, §3

DIGSA [5] = test: Post-emergence herbicidal effect against DIGSA; assay type: in vivo, Digitaria sanguinalis; conditions: one-leaf stage, 80 g/ha, assessed visually after about 3 weeks vs untreated controls, 100% = plants have died
Method: as §1

AVEFA [6] = test: Post-emergence herbicidal effect against AVEFA; assay type: in vivo, Avena fatua; conditions: one-leaf stage, 80 g/ha, assessed visually after about 3 weeks vs untreated controls, 100% = plants have died
Method: as §1

LOLRI [7] = test: Pre-emergence herbicidal effect against LOLRI; assay type: in vivo, Lolium rigidum; conditions: 320 g/ha, scored visually after 3 weeks vs untreated controls, 100% = plants have died
Excerpt: as §2, §3

AVEFA [8] = test: Pre-emergence herbicidal effect against AVEFA; assay type: in vivo, Avena fatua; conditions: 320 g/ha, scored visually after 3 weeks vs untreated controls, 100% = plants have died
Excerpt: as §2, §3

LOLRI [9] = test: Post-emergence herbicidal effect against LOLRI; assay type: in vivo, Lolium rigidum; conditions: one-leaf stage, 80 g/ha, assessed visually after about 3 weeks vs untreated controls, 100% = plants have died
Method: as §1

VIOTR = test: Pre-emergence herbicidal effect against VIOTR; assay type: in vivo, Viola tricolor; conditions: 320 g/ha, scored visually after 3 weeks vs untreated controls, 100% = plants have died
Excerpt: as §2, §3

ECHCG [10] = test: Post-emergence herbicidal effect against ECHCG; assay type: in vivo, Echinochloa crus-galli; conditions: one-leaf stage, 80 g/ha, assessed visually after about 3 weeks vs untreated controls, 100% = plants have died
Method: as §1

ECHCG [11] = test: Pre-emergence herbicidal effect against ECHCG; assay type: in vivo, Echinochloa crus-galli; conditions: 320 g/ha, scored visually after 3 weeks vs untreated controls, 100% = plants have died
Excerpt: as §2, §3

DIGSA [12] = test: Pre-emergence herbicidal effect against DIGSA; assay type: in vivo, Digitaria sanguinalis; conditions: 320 g/ha, scored visually after 3 weeks vs untreated controls, 100% = plants have died
Excerpt: as §2, §3

SMILES | Post-emergence action [%] against ALOMY (ALOMY [1]) [%] | Pre-emergence action [%] against ALOMY (ALOMY [2]) [%] | Post-emergence action [%] against SETVI (SETVI [3]) [%] | Pre-emergence action [%] against SETVI (SETVI [4]) [%] | Post-emergence action [%] against DIGSA (DIGSA [5]) [%] | Post-emergence action [%] against AVEFA (AVEFA [6]) [%] | Pre-emergence action [%] against LOLRI (LOLRI [7]) [%] | Pre-emergence action [%] against AVEFA (AVEFA [8]) [%] | Post-emergence action [%] against LOLRI (LOLRI [9]) [%] | Pre-emergence action [%] against VIOTR (VIOTR) [%] | Post-emergence action [%] against ECHCG (ECHCG [10]) [%] | Pre-emergence action [%] against ECHCG (ECHCG [11]) [%] | Pre-emergence action [%] against DIGSA (DIGSA [12]) [%]
CC#Cc1cc(C)c(C2=C(O)C3(CCCC(OCCC)C3)NC2=O)c(Br)c1 (stereo not shown) [Example D5] | 100 | 100 | 100 | 100 | 100 | 100 | 100 | 100 | 100 | 100 | 100 | 100 | 100
CC#Cc1cc(C)c(C2=C(O)C3(CCCC(OCCOC)C3)NC2=O)c(Br)c1 (stereo not shown) [Example D6] | 100 | 100 | 100 | 100 | 100 | 100 | 100 | 100 | 100 | 100 | 100 | 100 | 100
CC#Cc1cc(C)c(C2=C(O)C3(CCCC(OCC(C)C)C3)NC2=O)c(Cl)c1 (stereo not shown) [Example D9] | 100 | 100 | 100 | 100 | 90 | 90 | 100 | 100 | 90 | 100 | 100 | 100 | 100
CC#Cc1cc(Br)c(C2=C(O)C3(CCCC(OCCOC)C3)NC2=O)c(C2CC2)c1 (stereo not shown) [Example D11] | 100 | 100 | 100 | 100 | 100 | – | 100 | 100 | 100 | 100 | 100 | 100 | 100
CC#Cc1cc(Cl)c(C2=C(O)C3(CCC(OCC)CC3)NC2=O)c(CC)c1 (stereo not shown) [Example E12] | – | 90 | 100 | 100 | – | – | 100 | 90 | – | 100 | 100 | 100 | 100
CC#Cc1cc(C)c(C2=C(O)C3(CCC(OCCOC)CC3)NC2=O)c(Cl)c1 (stereo not shown) [Example E16] | 100 | 100 | 100 | 100 | 100 | 100 | 100 | 100 | 100 | 100 | 100 | 100 | 100
CC#Cc1cc(Cl)c(C2=C(O)C3(CCC(OC)CC3)NC2=O)c(CC)c1 (stereo not shown) [Example E20] | – | 100 | 100 | 100 | 100 | 90 | 90 | 100 | 80 | 100 | 100 | 100 | 100
